Laboratory results taken from US20070197424A1, “Glatiramer acetate for use as an immuno-modulatory agent” (priority 2003, published 2007).
“Also recorded” adds a separate entry of the source.

Legend:
[1] = system: CCl4-fibrosis induced mice; assay: CCl4-induced hepatic fibrosis in mice: liver injury and fibrosis assessment; format: in vivo, mouse; conditions: for liver injury (Ishak injury score): CCl4 fibrosis-induced mice, treated vs untreated; for hepatic fibrosis (Ishak liver fibrosis scoring, Bioquant analysis): compared to the CCl4 fibrosis-induced untreated group, Copaxone 200 microgram/day I.P. or Linomycin 1 mg/ml drinking water, last 2 weeks of 6 weeks CCl4
Method: (§1) Hepatic fibrosis was induced by IP CCl4 administration for 6 weeks in 8 week-old male wild-type C57Bl/6 mice. Within the last 2 weeks animals were also treated with either Copaxone 200 microgram/day I.P (Group A), Linomycin given by drinking water 1 mg/ml (Group B) or normal saline (group C), and were compared to naïve mice (Group D). Eight animals were included in each group. Hepatic fibrosis was evaluated by Ishak Knodell score [Knodell, R. G. et al., Hepatology 1981; 1(5):431-5], hydroxyproline and by analyzing 36 Sirius Red stained histological liver sections per animal with Bioquant® morphometry system. Splenocytes were isolated for FACS analysis from all animal groups. The correlation between hepatic fibrosis and CD4, CD8, NK cells, iKIR and aKIR expression on splenocytes was assessed.
Hepatic fibrosis animal model: Hepatic fibrosis was induced by IP CCl4 (10% as diluted with corn oil) administration 5 microliter/g body weight; for 4-6 weeks in 8 week-old male mice.
(§2) Liver and colon histology: The posterior one-third of the liver, the rectosigmoid colon were fixed in 10% formalin for 24 hours and then paraffin-embedded in an automated tissue processor. […] sections were cut from each animal specimen. Hematoxylin and eosin (H&E) staining was performed for each animal section.
Liver sections (15 μm) were stained in 0.1% Sirius Red F3B in saturated picric acid (both from Sigma). Additionally, alpha smooth muscle actin immunohistochemistry was performed using the DAKO kit (CAT# U7033 EPOS, Monoclonal) according to the manufacturer's instructions.
Hepatic Fibrosis quantitation: Relative fibrosis area (expressed as a % of total liver area) was assessed by analyzing 36 Sirius red-stained liver sections per animal. Each field was acquired at 10× magnification and then analyzed using a computerized Bioquant® morphometry system. To evaluate the relative fibrosis area, the measured collagen area was divided by the net field area and then multiplied by 100. Subtraction of vascular lumenal area from the total field area yielded the final calculation of the net fibrosis area.
Alpha smooth muscle actin immunoblot: Immunoblot analysis of Alpha-SMA in liver extracts is performed as previously described [de Waal Malefyt, R., et al., J. Exp. Med. 1991; 174:915-924] with modifications. Whole-liver protein extracts were prepared in liver homogenization buffer (50 mmol/L Tris-HCl [pH 7.6], 0.25% Triton-X 100, 0.15 M NaCl, 10 mM CaCl2 and complete mini EDTA-free protease inhibitor cocktail (Roche Diagnostics, Mannheim, Germany). Then proteins (30 μg per lane) were resolved on a 10% SDS-polyacrylamide gel under reducing conditions. For immunoblotting, proteins were transferred to a Protran membrane and incubated overnight at 4° C. in a blocking buffer containing 5% skim milk. Anti-SMA mouse monoclonal antibody (DAKO, cat# M0851) and peroxidase-conjugated goat anti-mouse IgG (P.A.R.I.S., Compiègne, France) and enhanced chemiluminescence were used.

splenocytes [2] = assay: FACS analysis of splenocytes in CCl4-fibrosis induced mice; format: in vivo, mouse; conditions: for spleen CD4:CD8 ratio: vs CCl4-induced fibrosis untreated group, FIG. 7; for spleen total number of NK cells: vs untreated fibrotic and naive groups, FIG. 8
Method: as §1
(§3) Splenocyte isolation: Spleens were harvested at the time of sacrifice and fractionated through a 70-μm nylon cell strainer. After RBC lysis, splenocytes were washed, suspended in RPMI 1640 medium and stored at 4° C. until FACS analysis.
(§4) Fluorescent-activated cell sorting analysis (FACS): splenocytes are analysed by direct immunofluorescence reactivity with a series of antibodies (Abs) using standard techniques on a Coulter flow cytometer (BECTON DICKINSON, USA). Briefly, 3×10^5 spleen cells are incubated for 30 minutes at 4° C. with Abs conjugated to fluorescein isothiocyanate (FITC), phycoerythrin (PE) or allophycocyanin (APC), washed three times, and resuspended in fixative solution with 2% paraformaldehyde for analysis. Antibodies used for staining splenocytes are monoclonal anti-mouse CD4, CD8 conjugated by PE and FITC respectively (BD Biosciences). For staining natural killer (NK) cells APC-conjugated rat anti-mouse CD49b/Pan-NK cells monoclonal antibody which identifies the majority of NK cells is used. For killer inhibitory receptors (iKIR) monoclonal mouse anti-mouse Ly-49C and Ly-49I conjugated by PE are used. For the killer activating receptor (aKIR) FITC-conjugated rat anti-mouse LY-49D monoclonal antibody were used. To defined the role of T regulatory cells we used the anti CD25 monoclonal antibodies. To identify lymphocytes staining with peridinin chlorophyll-α protein (Per-CP)-conjugated rat anti-mouse CD45 (BD Biosciences) was used. Lymphocyte subsets are presented as percentage of the CD45+ cells.

intrahepatic lymphocytes = assay: FACS analysis of intrahepatic lymphocytes in CCl4-fibrosis induced mice; format: in vivo, mouse
colitis-induced mice = assay: TNBS-colitis in mice: macroscopic and microscopic colitis score; format: in vivo, mouse; conditions: treated vs control colitis-induced mice
Method: Each group includes 10 male animals.
(§5) Following Ketamine/Xylazine anesthesia, animals were sacrificed, and serum, colons are harvested at day 12. Blood samples are obtained and frozen at −20° C. until assayed for cytokine levels (IL2, IL4, IFNg, IL10 and TGFb). Splenocyte subpopulations are analyzed by FACS for CD4 and CD8, NK markers, and killer inhibitory and activation receptors. Colons are assessed for inflammatory severity.
Colitis induction as inflammatory bowel disease animal model: TNBS-colitis was induced by rectal instillation of TNBS, 1 mg/mouse, dissolved in 100 μl of 50% ethanol as described [Trop S, Samsonov D, Gotsman I, Alper R, Diment J and Ilan Y (1999) Hepatology 29: 746-755].
as §2

splenocytes [3] = assay: FACS analysis of spleen cell populations in colitis-induced mice; format: in vivo, mouse
Method: as §5, §3, §4

serum cytokines = assay: Serum cytokine levels in colitis-induced mice; format: in vivo, mouse; conditions: vs colitis-induced untreated group
Method: as §5

dendritic cells = conditions: through modulation of dendritic cells; cited from earlier work
skin and thyroid grafts = conditions: cited from earlier work
[4] = system: graft-specific T cell lines; conditions: in vitro with stimulating allogeneic cells; cited from earlier work
[5] = system: relapsing-remitting multiple sclerosis; conditions: cited from earlier work

For glatiramer acetate [Copaxone], the “anti-fibrotic effect in the animal model” value ([1]; CCl4 fibrosis mouse model, overall conclusion) was “significant anti-fibrotic effect”, the “liver injury (Ishak injury score)” value ([1]; listed as Glatiramer acetate) was “reduced liver injury” and the “liver injury (Ishak injury score)” value ([1]; listed as copaxon) was “no significant difference”. The “liver injury (Ishak injury score)” value ([1]; listed as glatiramer acetate) was “significantly lower”, the “fibrosis severity, % of collagen in the analyzed area” value ([1]; after CCl4 fibrosis induction, p<0.0001, FIG. 4) was “significantly reduced” and the “hepatic fibrosis (Ishak liver fibrosis scoring, Bioquant analysis)” value [1] was “significant reduction of fibrosis”. For the same substance, the “hepatic fibrosis (Ishak liver fibrosis scoring, Bioquant analysis)” value ([1]; listed as glatiramer acetate) was “significantly lower”, the “alpha smooth muscle actin amounts (Western blot, liver)” value ([1]; vs CCl4 animal group, FIG. 5) was “significantly reduced” and the “spleen CD4 cells” value (splenocytes [2]; between fibrotic groups A, B and C, FIG. 6) was “no significant changes”. For the same substance, the “spleen CD8 cells” value (splenocytes [2]; compared to group C (p<0.05) or D (p<0.005), FIG. 6) was “significantly decreased”, the “spleen NK aKIR:NK iKIR ratio” value (splenocytes [2]; compared to the naive group (group D), p<0.0001, FIG. 9) was “significant increase” and the “spleen NK aKIR:NK iKIR ratio” value (splenocytes [2]; compared to the untreated fibrotic group (group C), p<0.05, FIG. 9) was “significantly lower”. The “spleen CD4:CD8 ratio” value (splenocytes [2]) was “increased; also recorded: significantly elevated”, the “spleen CD4:CD8 ratio” value (splenocytes [2]; listed as A) was “significantly elevated” and the “spleen total number of NK cells” value (splenocytes [2]) was “elevated”. The “spleen total number of NK cells” value (splenocytes [2]; listed as A) was “increased number”, the “intrahepatic CD4 cells” value (intrahepatic lymphocytes; between fibrotic groups A and C, FIG. 10) was “no significant changes” and the “intrahepatic NK cells number” value (intrahepatic lymphocytes; compared to fibrosis group C, p<0.0001, FIG. 12) was “significantly increased”. For the same substance, the “intrahepatic CD8 cells” value (intrahepatic lymphocytes; compared to group C, p<0.001, FIG. 10) was “significantly decreased”, the “intrahepatic CD4:CD8 ratio” value (intrahepatic lymphocytes; compared to group C, p<0.002, FIG. 11) was “significantly elevated” and the “macroscopic colitis score (tissue injury)” value (colitis-induced mice; FIG. 13a) was “prominent reduction”. The “microscopic colitis score (tissue injury)” value (colitis-induced mice; FIG. 13b, p<0.03) was “prominent reduction”, the “CD4 IFN-γ secreting cells” value (splenocytes [3]; colitis induced-Copaxone treated group, p<0.02, FIG. 16) was “increase” and the “spleen CD4 cell number” value (splenocytes [3]; colitis induced-Copaxone treated group, p<0.03, FIG. 15) was “significant increase”. For the same substance, the “spleen CD8 cell populations” value (splenocytes [3]; colitis-induced mice, FIG. 15) was “unaffected”, the “antigen presenting cells (APC), spleen” value (splenocytes [3]; colitis-induced mice, FIG. 17) was “seemed to be reduced” and the “serum IL-10 level” value (serum cytokines; p<0.002, FIG. 18) was “significantly reduced”. The “serum IL-4 level” value (serum cytokines; p<0.004, FIG. 18) was “significantly reduced”, the “serum IFN-γ level” value (serum cytokines; p<0.006, FIG. 18) was “significantly reduced” and the IL-10 production (dendritic cells) was “increase”. The “Th2 CD4 cell development” value (dendritic cells) was “promote”, the skin graft survival (skin and thyroid grafts; skin grafting assay) was “prolonged” and the “functional deterioration of thyroid grafts” value (skin and thyroid grafts; thyroid grafting assay) was “inhibited”. The “interleukin-2 and interferon-gamma secretion of graft-specific T cell lines” value [4] was “inhibited”, the “proliferation of graft-specific T cell lines” value [4] was “inhibited” and the “disease activity and burden of disease (MRI measures)” value ([5]; European/Canadian study) was “significantly decrease”. The tolerability ([5]; human, in vivo) was “generally well tolerated”, the overall disability status ([5]; patients with RRMS) was “significantly improved” and the “efficacy by relapse rate, proportion of relapse-free patients, number of gadolinium-enhancing lesions” value ([5]; subcutaneous 20 mg/day, patients with RRMS) was “significantly effective”.
